Assay results: article PMC5063400, “A Natural Mutation in Helix 5 of the Ligand Binding Domain of Glucocorticoid Receptor Enhances Receptor-Ligand Interaction” (PLoS ONE, 2016)
Residue numbers refer to the chain shown, from its start. Entries after “also recorded” stand apart in the source; their conditions may differ. Like-named read-outs stand apart in the source and are kept apart here.

Assays:
[1] = biological target: T1, porcine GR Ala610 (wild-type) (Sus scrofa, UniProt Q9N1U3, V610A); test: Transactivation assay (MMTV-luciferase reporter) in Cos-7 cells, wild-type Ala610 GR; format: cell-based; conditions: for EC50: Cos-7 cells
T1 construct: expressed in transfected cells; host or cells: Cos-7
T1 sequence (Q9N1U3 1-782 V610A): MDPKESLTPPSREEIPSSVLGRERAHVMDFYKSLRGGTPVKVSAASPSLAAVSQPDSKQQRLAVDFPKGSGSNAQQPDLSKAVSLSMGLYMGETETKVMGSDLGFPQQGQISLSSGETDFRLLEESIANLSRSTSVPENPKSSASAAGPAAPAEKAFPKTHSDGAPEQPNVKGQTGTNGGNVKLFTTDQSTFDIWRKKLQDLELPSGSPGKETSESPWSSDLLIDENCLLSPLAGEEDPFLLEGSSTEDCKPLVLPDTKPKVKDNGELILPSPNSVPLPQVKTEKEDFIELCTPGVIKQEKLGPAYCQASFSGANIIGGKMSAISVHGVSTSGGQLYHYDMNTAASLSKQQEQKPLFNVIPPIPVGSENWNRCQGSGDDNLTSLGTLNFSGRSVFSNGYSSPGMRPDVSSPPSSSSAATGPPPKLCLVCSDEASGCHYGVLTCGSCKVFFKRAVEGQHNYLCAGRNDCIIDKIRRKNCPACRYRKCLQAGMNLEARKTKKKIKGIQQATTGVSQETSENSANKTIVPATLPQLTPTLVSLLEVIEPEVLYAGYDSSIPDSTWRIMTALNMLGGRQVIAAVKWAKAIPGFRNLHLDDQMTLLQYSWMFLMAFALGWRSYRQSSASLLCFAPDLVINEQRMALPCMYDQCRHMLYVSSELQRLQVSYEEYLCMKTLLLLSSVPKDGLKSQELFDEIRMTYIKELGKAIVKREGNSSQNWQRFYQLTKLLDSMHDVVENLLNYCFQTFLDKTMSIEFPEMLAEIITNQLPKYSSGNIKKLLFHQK
Method: Porcine GR expression plasmids (pCMV-GRA610 or pCMV-GRV610) harboring the SNP NR3C1 c.1829C>T (causing the Ala610Val substitution) were used for a transactivation assay in Cos-7 cells as previously described. In brief, monkey kidney Cos-7 cells were seeded in 96-well plates at a density of 2.5×10^4 cells/well in DMEM (Invitrogen, Karlsruhe, Germany) with 10% FCS. Twenty-four hours after seeding, cells were co-transfected with 200 ng of expression vector, 100 ng of pGL4.36 reporter (Promega, Mannheim, Germany) and 2 ng of pRL-SV40 plasmid (Promega) according to the Lipofectamine 2000 protocol (Invitrogen). The reporter plasmid pGL4.36 expresses firefly luciferase under control of the glucocorticoid-inducible MMTV (Murine Mammary Tumor Virus Long Terminal repeat) promoter while the pRL-SV40 vector constitutively expresses the Renilla luciferase and was used to normalize for transfection efficiency. […] Therefore, cell media was replaced by DMEM supplemented with respective steroid concentrations and 10% charcoal-stripped FCS (PAA Laboratories, Coelbe, Germany). Twenty-four hours after stimulation, firefly and Renilla luciferase activities were measured using the Dual-Glo Luciferase Assay System (Promega) in a DTX 880 Multimode Detector (Beckman Coulter, Krefeld, Germany).
Transcript abundance was corrected for the copy number of expression plasmid.
For all steroids except testosterone, two separate experiments were performed in triplicate. Data were adjusted for transfection efficiency and the resulting luciferase ratios were normalized to cells that were treated with ethanol only. Fold-changes of transcriptional activity were compared using a generalized mixed linear model including fixed effects of genotype, hormone concentration, and the interaction of the two. Data were analyzed using SAS V9.3 software (SAS Institute, Cary, NC, USA). Least-square means were compared at each concentration and p-values were adjusted by Dunnett’s post-hoc test. Fold-change values were further adjusted to maximum relative luciferase induction and dose-response curves, EC50, and significance of EC50 differences were estimated using dose-response equation of GraphPad Prism 5 (GraphPad Software Inc, San Diego, CA).

[2] = biological target: T2, porcine GR Val610 (mutant) (Sus scrofa, UniProt Q9N1U3); test: Transactivation assay (MMTV-luciferase reporter) in Cos-7 cells, mutant Val610 GR
T2 sequence (Q9N1U3 1-782): T1 sequence (Q9N1U3 1-782 V610A) with A610V
Method: Porcine GR expression plasmids (pCMV-GRA610 or pCMV-GRV610) harboring the SNP NR3C1 c.1829C>T (causing the Ala610Val substitution) were used for a transactivation assay in Cos-7 cells as previously described [13]. In brief, monkey kidney Cos-7 cells were seeded in 96-well plates at a density of 2.5×10^4 cells/well in DMEM (Invitrogen, Karlsruhe, Germany) with 10% FCS. Twenty-four hours after seeding, cells were co-transfected with 200 ng of expression vector, 100 ng of pGL4.36 reporter (Promega, Mannheim, Germany) and 2 ng of pRL-SV40 plasmid (Promega) according to the Lipofectamine 2000 protocol (Invitrogen). The reporter plasmid pGL4.36 expresses firefly luciferase under control of the glucocorticoid-inducible MMTV (Murine Mammary Tumor Virus Long Terminal repeat) promoter while the pRL-SV40 vector constitutively expresses the Renilla luciferase and was used to normalize for transfection efficiency. […] Therefore, cell media was replaced by DMEM supplemented with respective steroid concentrations and 10% charcoal-stripped FCS (PAA Laboratories, Coelbe, Germany). Twenty-four hours after stimulation, firefly and Renilla luciferase activities were measured using the Dual-Glo Luciferase Assay System (Promega) in a DTX 880 Multimode Detector (Beckman Coulter, Krefeld, Germany).

[3] = biological target: GFP-tagged Ala610 GR (Sus scrofa, UniProt Q9N1U3, V610A); conditions: Cos-7 cells, after stimulation with dexamethasone
Description: (§1) Green fluorescent protein (GFP)-tagged expression vectors were generated to track subcellular distribution and movement of both GR variants. In brief, the EGFP region was amplified from EGFP-N1 (Clontech, Heidelberg, Germany), using primers EGFP_N_fw and EGFP_N_rev (Table 1) and the proofreading PrimeSTAR HS DNA Polymerase (MoBiTec, Göttingen, Germany). The product was inserted into the pCMV-Tag1 vector (Agilent Technologies, Waldbronn, Germany) using NotI restriction sites. The resulting plasmid was further digested with BamHI and BglII restriction enzymes to insert BclI digested GR-alpha fragments. Therefore, GR-alpha fragments were amplified using cDNA of two individuals homozygous for the c.1829C>T SNP with primers GR_N-Flag_fw2 and GR_N-Flag_rev (Table 1). […]
(§2) Cos-7 cells were seeded in culture dishes (Greiner Bio-One, Frickenhausen, Germany) or 8-well chamber slides (VWR International, Hannover, Germany) for live cell imaging at a density of 1.6x10^5 cells/mL in DMEM with 10% FCS and transfected one day later with pCMV-GFP-GRA610 or pCMV-GFP-GRV610 using a Lipofectamine:DNA-ratio of 3:1. […] Before visualization by microscopy, media were replaced with phenol red-free DMEM supplemented with 5% charcoal stripped FCS, and the dish or slide to be analyzed was placed in a microscope incubator at 37°C and 5% CO2.

[4] = biological target: GFP-tagged Val610 GR (Sus scrofa, UniProt Q9N1U3); conditions: Cos-7 cells, after stimulation with dexamethasone
Description: as §1, §2

[5] = biological target: T3, Ala610 GR (Sus scrofa, UniProt Q9N1U3, V610A); conditions: [3H]-dexamethasone, whole Cos-7 cells, mean ± SE
Method: (§3) A whole-cell GR binding assay was adapted from the protocol previously described for peripheral blood mononuclear cells (PBMC). Cos-7 cells were seeded in 10-cm dishes and T75 flasks at a density of 1.75x10^5 cells/mL. After 24 hours in culture, cells were transfected with pCMV-GRA610 or pCMV-GRV610 using either 10 μg plasmid and 50 μL Fugene HD (Promega) for dishes or 15 μg plasmid and 75 μL Fugene HD for flasks. After another 24 hours in culture, media were replaced with serum-free DMEM to avoid contamination with steroids. One day later cells were pelleted, washed with PBS, and resuspended in DMEM supplemented with 10 mM HEPES buffer. […] After incubation, cells were washed with ice-cold PBS and centrifuged (10 min, 400 × g, 4°C) three times. Cell pellets were then resuspended in 100 μL PBS and mixed with 3 mL scintillation fluid (Rotiszint eco plus, Carl Roth GmbH, Karlsruhe, Germany). Radioactivity was measured in a spectral liquid scintillation counter (Tri-Carb 2900TR, Perkin Elmer Inc., USA) at 50% efficiency. The experiment was performed three times.
(§4) Saturation binding analysis included in nonlinear regression models implemented in GraphPad Prism 5 was used to fit binding curves to estimate the dissociation constant (KD, mean ± SE), maximum specific binding (Bmax, mean ± SE), and differences in these values dependent upon GR genotype.

[6] = biological target: Val610 GR (Sus scrofa, UniProt Q9N1U3); test: cell-based
Method: as §3, §4

[7] = biological target: T3, Ala610 GR; conditions: [3H]-dexamethasone, pituitary cytosol, homozygous wild-type
Method: (§5) Pituitary glands were quickly removed from pigs after electronarcotization and exsanguination, snap-frozen, and stored at -80°C. […] Nine pools per genotype, each containing two to three samples, were analyzed. In total 40 pituitaries were used. Pituitaries from homozygous carriers of the alternative variant were not available due to its low frequency.
(§6) GR binding analysis was performed on the pooled samples as previously described. Briefly, tissues were homogenized in ice-cold 10 mM Tris-HCl buffer, pH 7.5, containing 12.5 mM EDTA, 10 mM sodium molybdate, […] sucrose, and 5 mM dithiothreitol using an electric homogenizer (Ultra-Turrax, IKA, Staufen, Germany). The homogenate was centrifuged at 120,000 × g for 60 min at 0–4°C to isolate cytosol (supernatant fraction). […] Non-specific binding was determined with a parallel incubation containing 500-fold excess of RU 28362 (kindly donated by Roussel Uclaf, France), which binds selectively to GR. The separation of bound from free ligand was performed by precipitation with dextran-coated charcoal and the receptor-[^3H]-steroid complexes were counted in the Tri-Carb 2900TR scintillation counter at 50% efficiency. Protein concentrations for each pool were determined with bovine serum albumin as a standard. Binding values were corrected for the amount of protein input. Individual binding curves for each pool were fitted using GraphPad Prism 5 as described above. Resulting KD and Bmax values were compared between genotypes using a mixed linear model implemented in SAS. The model included the effect of genotype and experimental batch.

[8] = biological target: AlaVal610 GR (Sus scrofa, UniProt Q9N1U3); conditions: pituitary cytosol
Method: as §5, §6

[9] = wide concentration range 0.01 nM to 10 μM, 24 h stimulation

Chain of AlaVal610 GR (Q9N1U3 whole entry): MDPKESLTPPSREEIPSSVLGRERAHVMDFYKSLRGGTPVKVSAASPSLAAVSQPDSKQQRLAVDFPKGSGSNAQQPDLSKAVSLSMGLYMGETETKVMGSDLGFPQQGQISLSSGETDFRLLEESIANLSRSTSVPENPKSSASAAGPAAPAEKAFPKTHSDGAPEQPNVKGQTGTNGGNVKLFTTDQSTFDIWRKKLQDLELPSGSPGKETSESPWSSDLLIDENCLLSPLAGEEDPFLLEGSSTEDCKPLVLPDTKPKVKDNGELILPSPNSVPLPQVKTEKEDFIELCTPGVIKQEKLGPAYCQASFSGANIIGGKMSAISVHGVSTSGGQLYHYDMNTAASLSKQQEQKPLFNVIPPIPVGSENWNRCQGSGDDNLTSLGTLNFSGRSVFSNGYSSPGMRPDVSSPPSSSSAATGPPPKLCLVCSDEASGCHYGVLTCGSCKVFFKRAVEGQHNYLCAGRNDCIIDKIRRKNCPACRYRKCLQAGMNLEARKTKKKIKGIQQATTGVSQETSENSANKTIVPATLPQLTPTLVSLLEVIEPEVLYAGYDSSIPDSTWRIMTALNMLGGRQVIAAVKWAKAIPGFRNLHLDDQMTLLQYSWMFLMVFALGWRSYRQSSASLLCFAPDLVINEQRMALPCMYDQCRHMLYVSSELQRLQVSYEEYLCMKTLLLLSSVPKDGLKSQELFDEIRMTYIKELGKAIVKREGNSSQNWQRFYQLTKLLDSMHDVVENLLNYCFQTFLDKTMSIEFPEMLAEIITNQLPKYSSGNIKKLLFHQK
Chain of AlaVal610 GR (Q9N1U3 whole entry): as above
Chain of Val610 GR (Q9N1U3 whole entry): as above
Chain of GFP-tagged Val610 GR (Q9N1U3 whole entry): as above

C[C@]12CCC(=O)C=C1CC[C@@H]1[C@@H]2[C@@H](O)C[C@]2(C=O)[C@@H](C(=O)CO)CC[C@@H]12 [aldosterone]
EC50 [1, 9]: 161 nM
EC50 [2]: 50.6 nM

C[C@]12CCC(=O)C=C1CC[C@@H]1[C@@H]2[C@@H](O)C[C@@]2(C)[C@H]1CC[C@]2(O)C(=O)CO [cortisol]
EC50 ([1]; narrow concentration range): 37.2 nM
EC50 [1, 9]: 44.7 nM
EC50 [2]: 36.5 nM
EC50 ([2]; EC50 of transactivation, Val610 GR, Cos-7 cells, narrow concentration range): 22.9 nM

C[C@@H]1C[C@H]2[C@@H]3CCC4=CC(=O)C=C[C@]4(C)[C@@]3(F)[C@@H](O)C[C@]2(C)[C@@]1(O)C(=O)CO [dexamethasone]
time to full translocation into the nucleus [3]: ≤ 15 min
time to full translocation into the nucleus [4]: ≤ 15 min
Bmax (maximum specific binding) [5]: 1479 ± 79.7 fmol/mL
Kd [6]: 6.08 nM
Bmax (maximum specific binding) ([6]; [3H]-dexamethasone, whole Cos-7 cells, mean ± SE): 1204 ± 118.1 fmol/mL
Bmax [7]: 62.2 ± 5.9 fmol/mg protein
Kd ([8]; [3H]-dexamethasone 0.2 to 24 nM, heterozygous carriers): 0.529 ± 0.068 nM
Bmax ([8]; [3H]-dexamethasone, heterozygous carriers): 63.4 ± 5.0 fmol/mg protein
increased affinity of heterozygous carriers compared to wild-type controls [8]: 1.7 fold

C[C@]12CC[C@H]3[C@@H](CCC4=CC(=O)CC[C@@]43C)[C@@H]1CC[C@@H]2O [testosterone]
activation of the MMTV-driven luciferase reporter ([1]; data not shown): unable to activate
activation of the MMTV-driven luciferase reporter ([2]; Val610 GR, data not shown): unable to activate; also recorded: remained insensitive
